Assay results published in article PMC11573166, “Sodium-dependent glucose co-transport proteins (SGLTs) are not involved in human glucose taste detection” (PLOS ONE, 2024).

Target: T1, human SGLT1 (hSGLT1) (Homo sapiens, UniProt P13866)
T1 construct: gene SLC5A1; Full length human SGLT1 (NP_000334)
T1 sequence (P13866 1-664): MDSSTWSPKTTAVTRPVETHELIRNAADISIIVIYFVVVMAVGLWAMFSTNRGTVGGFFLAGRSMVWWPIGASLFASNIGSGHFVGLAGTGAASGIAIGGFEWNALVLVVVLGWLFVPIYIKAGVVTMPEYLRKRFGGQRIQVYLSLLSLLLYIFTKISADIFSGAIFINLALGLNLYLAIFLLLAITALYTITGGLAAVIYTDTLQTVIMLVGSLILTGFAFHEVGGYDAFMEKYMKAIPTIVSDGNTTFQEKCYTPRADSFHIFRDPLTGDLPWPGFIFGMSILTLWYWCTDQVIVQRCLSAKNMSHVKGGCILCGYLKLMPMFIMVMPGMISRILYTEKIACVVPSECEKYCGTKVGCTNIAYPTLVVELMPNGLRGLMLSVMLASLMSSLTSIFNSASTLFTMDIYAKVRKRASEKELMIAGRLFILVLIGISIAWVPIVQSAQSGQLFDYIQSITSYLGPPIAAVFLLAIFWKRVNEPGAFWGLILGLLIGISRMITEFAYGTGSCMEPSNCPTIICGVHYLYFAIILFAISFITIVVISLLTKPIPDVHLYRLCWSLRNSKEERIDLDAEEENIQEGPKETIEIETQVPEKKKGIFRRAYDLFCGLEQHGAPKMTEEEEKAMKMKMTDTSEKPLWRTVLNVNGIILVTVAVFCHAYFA
Experiment: FLIPR membrane potential assay in CHO cells transiently expressing hSGLT1; mock-transfected cells did not respond
Format: cell-based

## OC[C@H]1OC(O)[C@H](O)[C@@H](O)[C@@H]1O (stereo partly drawn) [D-glucose]
  EC50: 452 µM
